EC50 data for 59 compounds are collected here from PubChem BioAssay AID2765 (Broad Institute, 2010).

Active and inactive are the calls of the source.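 The calls were made as follows: active = half-maximal concentration for the rise in caspase light signal at or below ten times the top tested dose; inconclusive = flat fit between 30% and 70% activity, or unreliable curve fit; inactive = the rest.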

This experiment concerns MEF A1-2A-BIM cells, caspase 3/7 luminescence, 3 h. Kind of experiment: inducers of caspase signal in A1-dependent MEFs – cell-based, luminescence, retest, A1 inhibitor project, dose response (AID 2765).

As for `CCCc1nc2sc3c(c2c(=O)n1N)CCC3`, the EC50 was > 35 µM (inactive).

As to `COc1ccccc1N1CCN(S(=O)(=O)CCNC(=O)c2cc(OC)c(OC)c(OC)c2)CC1`, the EC50 is > 35 µM (inactive).

For `Cc1ccc(C)c(NC(=S)NC(NC(=O)Cc2cccc3ccccc23)C(Cl)(Cl)Cl)c1` (centres undefined), the concentration giving a half-maximal response (EC50) is 5.84 µM.

In the case of `COc1ccccc1N1C(=O)c2cccc3c(Cl)ccc(c23)C1=O`, the EC50 is > 35 µM (inactive).

For the compound `O=C(CSc1ccc2ccccc2c1)NCCc1ccc(O)c(O)c1`, the EC50 is > 35 µM (inactive).

Consider `CC(C)(C)c1ccc(C(=O)Nc2ccc(O)c3c(=O)cc(-c4cccc(Cl)c4)oc23)cc1`, for which the EC50 was > 35 µM (inactive).

Take `CCN(CC)C1CCN(C(=O)c2ccc(OC3CCN(CCc4ccccc4)CC3)cc2)C1` (centres undefined): the EC50 is > 35 µM (inactive).

In the case of `CC(=O)Nc1ccc(S(=O)(=O)NCCc2ccccn2)cc1`, the EC50 was > 35 µM (inactive).

As for `C=CC[C@@H](CC(=O)N[C@@H](CO)Cc1ccccc1)C(=O)N[C@H](COC(=O)[C@H](CC=C)CC(=O)OC(C)(C)C)Cc1ccccc1`, the EC50 was > 35 µM (inactive).

On to `N#C/C(=C/c1ccc(N2CCOCC2)o1)c1ccc(Br)cc1`, for which the EC50 was > 35 µM (inactive).

With `O=C(Nc1cccc(Cl)c1)c1ccc(OC(=S)N2CCOCC2)cc1`, the EC50 is > 35 µM (inactive).

`Cn1cccc1C(=O)NC(=O)COC(=O)c1ccc(S(C)(=O)=O)cc1`: the EC50 was > 35 µM (inactive).

Turning to `Cc1cc(C)n2nc(SCC(=O)NC(=O)c3ccccc3)nc2n1`, the EC50 was > 35 µM (inactive).

As to `NC(=O)c1ccc(NC(=O)CSc2nnc(C3CC3)n2C2CC2)cc1`, the EC50 is > 35 µM (inactive).

Take `Cc1ccc(N=C2C(=O)Nc3ccccc32)cc1`: the EC50 is > 35 µM (inactive).

Regarding `CSc1cccc(NS(=O)(=O)c2cn(C)cn2)c1`, the EC50 was > 35 µM (inactive).

As to `COc1cc2cnc(-c3ccccc3)c(-c3cccc(C(F)(F)F)c3)c2cc1OC`, the EC50 is > 35 µM (inactive).

As for `CCc1cc(=O)oc2cc(C)cc(OCC(=O)NC3CCN(Cc4ccccc4)CC3)c12`, the EC50 was > 35 µM (inactive).

As to `Cc1ccc(CCNC(=O)c2cc(-c3ccncc3)nc3ccc(S(=O)(=O)N4CCOCC4)cc23)cc1`, the EC50 was > 35 µM (inactive).

Regarding `Cc1cc(=O)oc2c(C)c(OCC(=O)N3CCN(C(=O)C4COc5ccccc5O4)CC3)ccc12` (centres undefined), the EC50 is > 35 µM (inactive).

In the case of `COc1ccc(NC(=O)c2ccco2)c(NC(=O)c2ccc([N+](=O)[O-])cc2)c1`, the EC50 was > 35 µM (inactive).

On to `CN(C)CCCN(C(=O)c1cc2cc([N+](=O)[O-])ccc2s1)c1nc2cc3c(cc2s1)OCCO3`, for which the EC50 is > 35 µM (inactive).

For the compound `Cc1ccc(C(=O)N/C(=C\c2sccc2C)C(=O)NCCCN2CCOCC2)cc1`, the EC50 is > 35 µM (inactive).

For the compound `CCOC(=O)COc1ccccc1/C=C\[N+](=O)[O-]`, the concentration giving a half-maximal response (EC50) is 5.85 µM.

In the case of `CCOC(=O)Cc1csc(/N=C/c2c(O)n(-c3ccc(C)c(C)c3)c(=O)c3ccccc23)n1`, the EC50 was 9.23 µM.

For `COC(=O)CCC(=O)c1ccc(OC)c(Cl)c1`, the EC50 was > 35 µM (inactive).

Consider `CC(=O)c1ccc(N2CCN(S(=O)(=O)c3c(C(=O)N4CCCC4)c(C)n(C)c3C)CC2)cc1`, for which the EC50 is > 35 µM (inactive).

`COC(=O)C(CO)Nc1ncnc2onc(-c3ccc(F)cc3)c12` (centres undefined): the EC50 is > 35 µM (inactive).

As to `CC(C)(C)[C@H](N)C(=O)N[C@H]1CCC2C3CC=C4C[C@@H](O)CC[C@]4(C)C3CC[C@@]21C` (some centres undefined), the EC50 is > 35 µM (inactive).

Consider `Cc1csc(NC(=O)c2cccc(S(=O)(=O)N3CCN(C)CC3)c2)n1`, for which the EC50 was > 35 µM (inactive).

With `Cc1ccc(NC(=O)c2cccc(S(=O)(=O)NCc3ccccc3)c2)nc1`, the EC50 is > 35 µM (inactive).

As to `Cc1cc(C)c(C(=O)COC(=O)C2CCN(c3ccc(C(F)(F)F)cn3)CC2)cc1C`, the EC50 is > 35 µM (inactive).

As for `Cc1cc(C(C#N)c2ccc(Cl)cc2)c(Cl)cc1NC(=O)c1cc(I)cc(I)c1O` (centres undefined), the EC50 was > 35 µM (inactive).

As for `O=C(NCc1ccc(/C=N\NC(=O)C(=O)Nc2ccccc2Br)o1)C(=O)Nc1ccccc1`, the EC50 is > 35 µM (inactive).

Consider `CC12CCCCC1NS(=O)(=O)OC2` (centres undefined), for which the EC50 is > 35 µM (inactive).

Turning to `Cc1cccc(C)c1NC(=S)Nc1ccccc1C(=O)NCc1ccco1`, the EC50 was > 35 µM (inactive).

Take `O=C(O)CCN1C(=O)/C(=C\c2ccncc2)SC1=S`: the EC50 was > 35 µM (inactive).

As to `Cc1ccc(Sc2ncccc2C(=O)NCc2cc([N+](=O)[O-])ccc2O)cc1C`, the EC50 is > 35 µM (inactive).

Take `COc1ccc(S(N)(=O)=O)cc1C(=O)OCCCOc1ccc(F)cc1`: the EC50 is > 35 µM (inactive).

In the case of `CCCn1c(SCC(=O)NC)nc2sc3c(c2c1=O)CCC3`, the EC50 is > 35 µM (inactive).

With `Cc1ccc(N=C2C(=O)Nc3ccc(C)c(Br)c32)cc1`, the EC50 is > 35 µM (inactive).

For `CC(C)CCN1NC2(CCCC(C)C2)NC1=S` (centres undefined), the EC50 is > 35 µM (inactive).

Take `O=C(c1ccco1)N1CCN(C(=O)C2CCN(S(=O)(=O)c3cccs3)CC2)CC1`: the EC50 is > 35 µM (inactive).

`COc1cccc(C(=O)NCC(=O)N/N=C/c2ccc(OC(=O)c3cccs3)c(OC)c2)c1`: the EC50 was > 35 µM (inactive).

For the compound `CC[C@H]1CN2CCc3cc(OC)c(OC)cc3[C@@H]2C[C@@H]1C[C@H]1NCCc2cc(OC)c(OC)cc21`, the EC50 was > 35 µM (inactive).

As for `O=C(Nc1ccc(Br)cc1C(=O)O)c1ccc2c(c1)C(=O)N(Cc1ccccc1)C2=O`, the EC50 was > 35 µM (inactive).

`COC(=O)Cc1csc(/N=C/c2c(O)n(-c3cccc(C(F)(F)F)c3)c(=O)c3ccccc23)n1`: the EC50 is 5.7 µM.

For `COC(=O)c1ccc(Cl)cc1NC(=O)/C=C/c1ccc(C)o1`, the EC50 was > 35 µM (inactive).

Regarding `COc1cc(C(=O)Nc2cc3c(cc2N2CCCCC2)n(C)c(=O)n3C)cc(OC)c1OC`, the EC50 was > 35 µM (inactive).

Turning to `Cc1c(Cl)cccc1NC(=O)CN1CCN(CCN=CC2=C(O)CC(c3ccccc3)CC2=O)CC1` (centres undefined), the EC50 was > 35 µM (inactive).

Take `COc1ccc(C2Nc3ccc4ccccc4c3-c3c2c(=O)oc2ccccc32)cc1` (centres undefined): the concentration for a half-maximal effect (EC50) was 11 µM.

With `Clc1ccc(C2=CC(c3ccco3)n3ncnc3N2)cc1` (centres undefined), the EC50 was > 35 µM (inactive).

As for `CCn1c(Cl)c(C=O)s/c1=N\S(=O)(=O)c1ccccc1`, the EC50 was > 35 µM (inactive).

Regarding `CN(C)c1ccc(NC(=O)C2CCCN(S(=O)(=O)c3ccccc3)C2)cc1` (centres undefined), the EC50 is > 35 µM (inactive).

As for `CCCn1c(=N)n(CCOc2ccc(OC)cc2)c2ccccc21`, the EC50 is > 35 µM (inactive).

In the case of `C=C1/C=C(\C)[C@](C)(O)C[C@H](O)CC(=O)[C@H](O)[C@@H](O)[C@H](C)C[C@H](C)OC(=O)/C(C)=C/CC/C=C/[C@@H]2O[C@H]2C[C@H](C)C1`, the EC50 was > 35 µM (inactive).

`COc1ccccc1CCNC(C)CCc1ccc(O)cc1` (centres undefined): the EC50 is > 35 µM (inactive).

For the compound `Cc1noc(C)c1COc1ccc(C(=O)OC(C)C(=O)Nc2ccc(N3CCOCC3)cc2)cc1` (centres undefined), the EC50 was > 35 µM (inactive).

As for `CCCCc1ccc(S(=O)(=O)NC2CCS(=O)(=O)C2)cc1` (centres undefined), the EC50 was > 35 µM (inactive).
